Test results as given in patent publication EP2070932A1, “Pyrazolotriazines” (4SC AG, priority 2007, dated 2009).
Counter-ions that a name gives are not always drawn.

tested on: RKO p27 uninduced (proliferating); test: Alamar Blue cell viability assay, anti-proliferative / cytotoxic activity on proliferating RKO cells; type: cell-based, human; details: Homo sapiens, RKOp27, 72 h, read-out: -log EC50 [mol/l] RKO p27 uninduced (proliferating) (converted)
Protocol: The anti-proliferative / cytotoxic activity of the compounds described herein can be tested on subclones of RKO human colon adenocarcinoma cells (Schmidt et al., Oncogene 19, 2423-2429; 2000) using the Alamar Blue cell viability assay (described in O'Brien et al. Eur J Biochem 267, 5421-5426, 2000). The compounds are dissolved as 10 mM solutions in DMSO and subsequently diluted in semi-logarithmic steps. DMSO dilutions are further diluted 1:100 v:v into Dulbecco's modified Eagle's medium (DMEM) containing 10% fetal calf serum to a final concentration twice as much as the final concentration in the test. RKO subclones are seeded into 96 well flat bottom plates at a density of 4000 cells per well in a volume of 50 µl per well. 24 hours after seeding the 50 µl each of the compound dilutions in DMEM medium are added into each well of the 96 well plate. Each compound dilution is tested as triplicates. Wells containing untreated control cells are filled with 50 µl DMEM medium containing 1% DMSO. The cells are then incubated with the substances for 72 hours at 37°C in a humidified atmosphere containing 5% carbon dioxide. To determine the viability of the cells, 10 µl of an Alamar Blue solution (Biosource) are added and the fluorescence is measured at an extinction of 544 nm and an emission of 590 nm. For the calculation of the cell viability the emission value from untreated cells is set as 100% viability and the emission rates of treated cells are set in relation to the values of untreated cells. Viabilities are expressed as % values. The Graphpad Prism program is used for the calculation of EC50 values for anti-proliferative / cytotoxic activity out of the obtained dose-response curves. […]

Row | SMILES | EC50 [nM]
1 | Cc1ccc(C(=O)N(CCCCN)C(c2nc3c(Cl)c(C)nn3c(=O)n2Cc2ccccc2)C(C)C)cc1 (racemic) [Example 16, N-(4-Amino-n-butyl)-N-[(RS)-1-(3-benzyl-8-chloro-7-methyl-4-oxo-3,4-dihydro-pyrazolo[1,5-a][1,3,5]triazin-2-yl)-2-methyl-n-propyl]-4-methyl-benzamide hydrocloride] | 100 to 1000
2 | Cc1nn2c(=O)n(Cc3ccccc3)c(C(C(C)C)N(CCCN)C(=O)c3ccc(Cl)c(Cl)c3)nc2c1Cl (racemic) [Example 11, N-(3-Amino-n-propyl)-N-[(RS)-1-(3-benzyl-8-chloro-7-methyl-4-oxo-3,4-dihydro-pyrazolo[1,5-a][1,3,5]triazin-2-yl)-2-methyl-n-propyl]-3,4-dichloro-benzamide hydrocloride] | 100 to 1000

same assay, conditions: Homo sapiens, RKOp27; RKO colon cancer cells, without Ponasterone A, 72 hours incubation, Alamar Blue; read-out: -log EC50 [mol/l] RKO p27 uninduced (proliferating) (converted)

Row | SMILES | EC50 [nM]
3 | COc1nn2c(=O)n(Cc3ccccc3)c(C(C(C)C)N(CCCN)C(=O)c3ccc(C)cc3)nc2c1Cl (racemic) [Example 21, N-(3-Amino-n-propyl)-N-[(RS)-1-(3-benzyl-8-chloro-7-methoxy-4-oxo-3,4-dihydro-pyrazolo[1,5-a][1,3,5]triazin-2-yl)-2-methyl-n-propyl]-4-methyl-benzamide hydrochloride] | ≤ 100
4 | Cc1ccc(C(=O)N(CCCN)C(c2nc3c(Cl)c(C)nn3c(=O)n2Cc2ccccc2)C(C)C)cc1 (racemic) [Example 1, N-(3-Amino-n-propyl)-N-[(RS)-1-(3-benzyl-8-chloro-7-methyl-4-oxo-3,4-dihydro-pyrazolo[1,5-a][1,3,5]triazin-2-yl)-2-methyl-n-propyl]-4-methyl-benzamide hydrochloride] | ≤ 100
5 | Cc1nn2c(=O)n(Cc3ccccc3)c(C(C(C)C)N(CCCN)C(=O)c3ccc(F)cc3)nc2c1Cl (racemic) [Example 6, N-(3-Amino-n-propyl)-N-[(RS)-1-(3-benzyl-8-chloro-7-methyl-4-oxo-3,4-dihydro-pyrazolo[1,5-a][1,3,5]triazin-2-yl)-2-methyl-n-propyl]-4-fluoro-benzamide hydrochloride] | 100 to 1000
6 | Cc1ccc(C(=O)N(CCCN)C(c2nc3c(Cl)c(OC(F)F)nn3c(=O)n2Cc2ccccc2)C(C)C)cc1 (racemic) [Example 17, N-(3-Amino-n-propyl)-N-{(RS)-1-[3-benzyl-8-chloro-7-(1,1-difluoro-methoxy)-4-oxo-3,4-dihydro-pyrazolo[1,5-a] [1,3,5]triazin-2-yl]-2-methyl-n-propyl}-4-methyl-benzamide hydrochloride] | ≤ 100
7 | Cc1nn2c(=O)n(Cc3ccccc3)c(C(C(C)C)N(CCCN)C(=O)c3ccc(Cl)cc3)nc2c1Cl (racemic) [Example 5, N-(3-Amino-n-propyl)-N-[(RS)-1-(3-benzyl-8-chloro-7-methyl-4-oxo-3,4-dihydro-pyrazolo[1,5-a][1,3,5]triazin-2-yl)-2-methyl-n-propyl]-4-chloro-benzamide hydrochloride] | ≤ 100
8 | Cc1cccc(C(=O)N(CCCN)C(c2nc3c(Cl)c(C)nn3c(=O)n2Cc2ccccc2)C(C)C)c1 (racemic) [Example 7, N-(3-Amino-n-propyl)-N-[(RS)-1-(3-benzyl-8-chloro-7-methyl-4-oxo-3,4-dihydro-pyrazolo[1,5-a][1,3,5]triazin-2-yl)-2-methyl-n-propyl]-3-methyl-benzamide hydrochloride] | ≤ 100
9 | Cc1ccc(C(=O)N(CCCN)C(c2nc3cc(OC(F)F)nn3c(=O)n2Cc2ccccc2)C(C)C)cc1 (racemic) [Example 10, N-(3-Amino-n-propyl)-N-{(RS)-1-[3-benzyl-7-(1,1-difluoro-methoxy)-4-oxo-3,4-dihydro-pyrazolo[1,5-a] [1,3,5]triazin-2-yl]-2-methyl-n-propyl}-4-methyl-benzamide hydrochloride] | ≤ 100
10 | Cc1ccc(C(=O)N(CCN)C(c2nc3c(Cl)c(C)nn3c(=O)n2Cc2ccccc2)C(C)C)cc1 (racemic) [Example 2, N-(2-Amino-ethyl)-N-[(RS)-1-(3-benzyl-8-chloro-7-methyl-4-oxo-3,4-dihydro-pyrazolo[1,5-a][1,3,5]triazin-2-yl)-2-methyl-n-propyl]-4-methyl-benzamide hydrochloride] | ≤ 100
11 | Cc1nn2c(=O)n(Cc3ccccc3)c(C(C(C)C)N(CCCN)C(=O)c3cccc(Cl)c3Cl)nc2c1Cl (racemic) [Example 14, N-(3-Amino-n-propyl)-N-[(RS)-1-(3-benzyl-8-chloro-7-methyl-4-oxo-3,4-dihydro-pyrazolo[1,5-a][1,3,5]triazin-2-yl)-2-methyl-n-propyl]-2,3-dichloro-benzamide hydrochloride] | 100 to 1000
12 | COc1cc2nc(C(C(C)C)N(CCCN)C(=O)c3ccc(C)cc3)n(Cc3ccccc3)c(=O)n2n1 (racemic) [Example 20, N-(3-Amino-n-propyl)-N-[(RS)-1-(3-benzyl-7-methoxy-4-oxo-3,4-dihydro-pyrazolo[1,5-a][1,3,5]triazin-2-yl)-2-methyl-n-propyl]-4-methyl-benzamide hydrochlorid] | ≤ 100
13 | Cc1ccc(C(=O)N(CCCN)C(c2nc3c(Cl)cnn3c(=O)n2Cc2ccccc2)C(C)C)cc1 (racemic) [Example 4, N-(3-Amino-n-propyl)-N-[(RS)-1-(3-benzyl-8-chloro-4-oxo-3,4-dihydro-pyrazolo[1,5-a][1,3,5]triazin-2-yl)-2-methyl-n-propyl]-4-methyl-benzamide hydrochloride] | ≤ 100
14 | COc1ccc(C(=O)N(CCCN)C(c2nc3c(Cl)c(C)nn3c(=O)n2Cc2ccccc2)C(C)C)cc1 (racemic) [Example 15, N-(3-Amino-n-propyl)-N-[(RS)-1-(3-benzyl-8-chloro-7-methyl-4-oxo-3,4-dihydro-pyrazolo[1,5-a][1,3,5]triazin-2-yl)-2-methyl-n-propyl]-4-methoxy-benzamide hydrochloride] | ≤ 100
15 | Cc1nn2c(=O)n(Cc3ccccc3)c(C(C(C)C)N(CCCN)C(=O)c3ccc(Br)cc3)nc2c1Cl (racemic) [Example 8, N-(3-Amino-n-propyl)-N-[(RS)-1-(3-benzyl-8-chloro-7-methyl-4-oxo-3,4-dihydro-pyrazolo[1,5-a][1,3,5]triazin-2-yl)-2-methyl-n-propyl]-4-bromo-benzamide hydrochloride] | ≤ 100

same assay, conditions: RKO colon cancer cells, without Ponasterone A, 72 hours incubation, Alamar Blue

Row | SMILES | -log EC50 [mol/l] RKO p27 uninduced (proliferating)
16 | Cc1ccc(C(=O)N(CCCN)C(c2nc3c(Cl)c(C)nn3c(=O)n2Cc2ccccc2)C(C)C)c(F)c1.Cl (racemic) [Example 12, N-(3-Amino-n-propyl)-N-[(RS)-1-(3-benzyl-8-chloro-7-methyl-4-oxo-3,4-dihydro-pyrazolo[1,5-a][1,3,5]triazin-2-yl)-2-methyl-n-propyl]-2-fluoro-4-methyl-benzamide hydrocloride] | -log EC50 [mol/l] RKO p27 uninduced (proliferating) >= 7.0
17 | Cc1ccc(C(=O)N(CCCN)C(c2nc3c(Cl)c(C)nn3c(=O)n2Cc2ccccc2)C(C)C)cc1 (racemic) [Example 1a, N-(3-Amino-n-propyl)-N-[(RS)-1-(3-benzyl-8-chloro-7-methyl-4-oxo-3,4-dihydro-pyrazolo[1,5-a][1,3,5]triazin-2-yl)-2-methyl-n-propyl]-4-methyl-benzamide] | -log EC50 [mol/l] RKO p27 uninduced (proliferating) >= 7.0
18 | Cc1ccc(C(=O)N(CCCN)C(c2nc3c(Cl)c(C)nn3c(=O)n2Cc2ccccc2)C(C)C)cc1F.Cl (racemic) [Example 13, N-(3-Amino-n-propyl)-N-[(RS)-1-(3-benzyl-8-chloro-7-methyl-4-oxo-3,4-dihydro-pyrazolo[1,5-a][1,3,5]triazin-2-yl)-2-methyl-n-propyl]-3-fluoro-4-methyl-benzamide hydrocloride] | -log EC50 [mol/l] RKO p27 uninduced (proliferating) >= 7.0
19 | Cc1nn2c(=O)n(Cc3ccccc3)c(C(C(C)C)N(CCCN)C(=O)c3ccc(C(F)(F)F)cc3)nc2c1Cl.Cl (racemic) [Example 9, N-(3-Amino-n-propyl)-N-[(RS)-1-(3-benzyl-8-chloro-7-methyl-4-oxo-3,4-dihydro-pyrazolo[1,5-a][1,3,5]triazin-2-yl)-2-methyl-n-propyl]-trifluoromethyl-benzamide hydrochloride] | -log EC50 [mol/l] RKO p27 uninduced (proliferating) >= 7.0
20 | Cc1ccc(C(=O)N(CCCN(C)C)C(c2nc3c(Cl)c(C)nn3c(=O)n2Cc2ccccc2)C(C)C)cc1 (racemic) [Example 19, N-[(RS)-(3-Benzyl-8-chloro-7-methyl-4-oxo-3,4-dihydro-pyrazolo[1,5-a][1,3,5]triazin-2-yl)-methyl-n-propyl]-N-(3-dimethylamino-n-propyl)-4-methyl-benzamide] | -log EC50 [mol/l] RKO p27 uninduced (proliferating) >= 7.0
